Measured values published in US20250057876A1, “METHODS FOR TREATING AND/OR PREVENTING LYMPHANGIOGENESIS-ASSOCIATED DISEASES BY USING GOLD NANOCLUSTERS” (MacKay Memorial Hospital, priority 2023, published 2025).

Test system: ISO-induced cardiac injured mice
Experiment: Echocardiography in isoproterenol (ISO)-induced heart failure model
Format: in vivo, mouse
Settings: co-treatment of MAZ-51 with FANCs in ISO-treated mice, vs ISO+FANC group
Description: Male 7-weeks-old C57BL/6 mice were purchased from BioLasco Inc. (Yilan, Taiwan), The mice were treated with FANCs (20 μM; about 0.57 mg/kg body weight) via an abdominal implant using osmotic pump system on Day 0. Then, the mice were subcutaneously treated with ISO (150 mg/kg) on Day 14. After 14 days from ISO injection, echocardiography was performed on Day 28 to measure the cardiac function of the mice. The animals were then sacrificed, and their hearts were harvested for histological and pathological examination.
The experimental echocardiography for the mice was conducted after the mice were anesthetized with isoflurane (Abbott Laboratories Ltd., England; delivered to achieve a concentration of 1-2% in a combination of oxygen and nitrous oxide mixed at a ratio of 50:50 with air). […] Parameters including tissue Doppler used to determine contractile velocity (TDI-S′), deformation-based circumferential systolic strain measure, and quantitative indices of tissue structure integrated backscatter intensity from dynamic myocardial motions, were used to assess systolic myocardial performance using ECG-gated off-line analysis on the EchoPac Workstation.

For CN(C)c1ccc(/C=C2/C(=O)Nc3ccccc32)c2ccccc12 [MAZ-51, (3E)-3-[[4-(dimethylamino)naphthalen-1-yl]methylidene]-JH-inden-2-one], which “effect on FANCs improved cardiac function” value is on record?
The value was “abolished”.
